Legend:
Mice Subjected to Anoxia = test: Effect on Survival Time of Mice Subjected to Anoxia (100% N2); assay type: in vivo, mouse (male ICR); conditions: 30 min before anoxia, n = 10, **P < 0.01 vs control
Experimental: Effect on Survival Time of Mice Subjected to Anoxia (100% N2)
A pair of male ICR mice with the same age was maintained in a close glass chamber in which circulated a current of nitrogen gas, and measured survival time. One mouse was pretreated intraperitoneally with the test compound, and another with the vehicle 30 min before the experiment.
(§1) Test compounds were dissolved in saline.

[1] = tested on: Arachidonic Acid-Induced Cerebral Edema in Rat; test: Effect on Arachidonic Acid-Induced Cerebral Edema in Rat; assay type: in vivo, rat (male Wistar); conditions: for Water content, Contralatelal hemisphere / Water content, Infarcted hemisphere: N = 6; for Water content, Infarcted hemisphere: **P < 0.01
Experimental: Effect on Arachidonic Acid-Induced Cerebral Edema in Rat
Male wistar rats were anesthetized with ethyl ether. The right lingual and occipital arteries were ligated. Retrograde cannulation was performed at the bifurcation of the external and internal carotid arteries via the upper part of the right external artery. Arachidonic acid dissolved in 10% ethyl alcohol and 0.4% Na2 CO3 was injected into the internal carotid artery in a dose of 2 mg/0.2 ml/kg at a speed of 0.08 ml/min. Two hours after the injection of arachidonic acid, the animals were decapitated and water content in the infarcted and contralatelal hemisphere was measured. The test drug was administered intraperitoneally 30 min before the injection of arachidonic acid.
as §1

Rat Brain Mitochondria = test: Effect on Lipid Peroxide Production in Rat Brain Mitochondria (malondialdehyde, thiobarbituric acid method); assay type: biochemical, rat (male Wistar); conditions: 1 hr at 37° C., 100 μM ascorbic acid, 20 μM FeSO4
Experimental: Effect on Lipid Peroxide Production in Rat Brain Mitochondria
Brain mitochondria from male Wistar rat was incubated with 100 μM ascorbic acid, 20 μM FeSO4 and test drug for 1 hr at 37° C. Malondialdehyde formed in the incubation mixture was measured by the thiobarbituric acid method according to Shimada et al (Biochem. Biophys. Acta, 489; 163-172. 1977)
Test compounds were dissolved in water

[2] = 32 mg/kg i.p. 30 min before arachidonic acid, vehicle (1) 78.7 ± 0.4, (2), (3) 79.4 ± 0.2
[3] = 32 mg/kg i.p. 30 min before arachidonic acid, vehicle (1) 81.9 ± 0.4, (2), (3) 81.5 ± 0.4

| Structure (SMILES) | Water content, Contralatelal hemisphere [1, 2] | Water content, Infarcted hemisphere [1, 3] | Inhibition % (malondialdehyde formation) (Rat Brain Mitochondria; at 10^-5 g/ml) | further results |
| --- | --- | --- | --- | --- |
| Cc1nc(-c2ccccc2)nc(-c2cccc([N+](=O)[O-])c2)c1C(=O)NCCN(C)C.O=C(O)/C=C/C(=O)O [Example 32, N-(2-dimethylaminoethyl)-6-methyl-4-(3-nitrophenyl)-2-phenyl-5-pyrimidinecarboxamide fumarate] | 79.3 ± 0.2% | 79.9 ± 0.1% |  | Survival time (Mice Subjected to Anoxia; 10 mg/kg intraperitoneally, control 30.5 ± 0.5): 37.0 ± 1.5 s; Survival time (Mice Subjected to Anoxia; 100 mg/kg intraperitoneally, control 39.0 ± 1.2): 50.0 s; Water content, Contralatelal hemisphere ([1]; 10 mg/kg i.p. 30 min before arachidonic acid, vehicle 78.7 ± 0.4): 79.0 ± 0.3%; Water content, Infarcted hemisphere ([1]; 10 mg/kg i.p. 30 min before arachidonic acid, vehicle 81.9 ± 0.4): 80.2 ± 0.1% |
| Cc1nc(-c2ccccc2)nc(-c2cccc([N+](=O)[O-])c2)c1C(=O)NCCN1CCSCC1 [Example 36, 6-methyl-4-(3-nitrophenyl)-2-phenyl-N-[2-(4-thiomorpholino)ethyl]-5-pyrimidinecarboxamide] | 78.9 ± 0.1% | 79.5 ± 0.2% | 70.2% |  |
| CCCCC/C=C\C/C=C\C/C=C\C/C=C\CCCC(=O)O [Arachidonic acid, reference compound] |  |  |  | water content of the ipsilatelal hemisphere after injection into internal carotid artery (in words) ([1]; 2 mg/0.2 ml/kg, two hours after the injection): caused increase of water content |
| Cc1nc(-c2ccccc2)nc(-c2cccc([N+](=O)[O-])c2)c1C(=O)N1CCN(C)CC1 [Example 21, 6-methyl-5-(4-methylpiperazin-1-ylcarbonyl)-4-(3-nitrophenyl)-2-phenyl-pyrimidine] | 78.6 ± 0.1% | 79.7 ± 0.3% | 72.8% |  |
| COC(=O)c1c(C)nc(-c2ccccc2)nc1-c1cc([N+](=O)[O-])ccc1SC [Example 26, methyl 6-methyl-4-(2-methylthio-5-nitrophenyl)-2-phenyl-5-pyrimidinecarboxylate] |  |  |  | Inhibition % (malondialdehyde formation) (Rat Brain Mitochondria; at 10^-4 g/ml): 90.9% |

From patent US4698340A, “Pyrimidine derivatives, processes for preparation thereof and composition containing the same” (Fujisawa Pharmaceutical Co., Ltd., priority 1984, dated 1987)
